The results in this text go back to US10611740B2, “Aryl dihydro-2H-benzo[b][1,4]oxazine sulfonamide and related compounds for use as agonists of RORγ and the treatment of disease” (Lycera Corporation, priority 2015, dated 2020).

SMILES strings stand for the structures. pEC50: −log10 of the molar value. Some results are limits rather than exact numbers.

One may read the pEC50 as −log10 of the EC50, conventionally taken in molar units. A high value points to a small EC50.

One assay addresses T1, Gal4-RORγ-LBD (Homo sapiens, UniProt P51449).
T1 construct: expressed in transfected cells; host or cells: HEK-293 cells (pcDNA3.1neo plasmid)
T1 sequence (P51449 269-508 limits assumed): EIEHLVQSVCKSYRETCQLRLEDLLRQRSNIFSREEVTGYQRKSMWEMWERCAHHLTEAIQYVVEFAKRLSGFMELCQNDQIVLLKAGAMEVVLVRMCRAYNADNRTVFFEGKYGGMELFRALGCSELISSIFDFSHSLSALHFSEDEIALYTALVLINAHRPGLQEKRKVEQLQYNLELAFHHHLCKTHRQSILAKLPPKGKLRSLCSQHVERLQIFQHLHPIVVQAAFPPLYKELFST
In words: Gal4-RORγ Luciferase Reporter Assay in HEK-293T Cells. The assay is classed as cell-based. The conditions noted are these: HEK-293 cells. The method, boiled down: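 In transfected HEK-293 cells (Gal4-RORγ-LBD, Gal4-luciferase), test agents with 2 μM ursolic acid were incubated overnight at 37 °C before luminescent detection. Values are relative to the ursolic-acid-free, compound-free signal (100).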
For orientation: In a reporter assay the amount or activity of a reporter protein is the signal.

A further assay concerns the target T2, RORγ-LBD (Homo sapiens, UniProt P51449).
T2 construct: made in house; host or cells: SF9 cells (baculovirus)
T2 sequence (P51449 269-508 limits assumed): T1 sequence (P51449 269-508 limits assumed)
In words: RORγ-Ligand Binding Domain (LBD) TR-FRET Assay.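 For TR-FRET Assay Max Response: 665/615 nm ratio relative to signal without ursolic acid or compound set at 100.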 Type of assay: biochemical. The method, boiled down: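 SF9 lysate containing His-RORγ-LBD, ~3 nM final; coactivator peptide biotin-SRC1 LXXLL, 200 nM final; ursolic acid 2 μM final; DMSO 1% final; Tris pH 7.0 buffer with KCl, EDTA, DTT, BSA. TR-FRET format.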
(In general: Time-resolved FRET reads energy transfer from a long-lived donor to a nearby acceptor.)

[1] abbreviates: luciferase reporter, with 2 μM ursolic acid.

With `C[C@](O)(C(=O)NC[C@H]1CN(S(=O)(=O)c2cccc(C(F)(F)F)c2)c2cc(-c3cc(F)ccc3F)ccc2O1)C(F)(F)F` [Compound 30W, (S)-N-(((S)-6-(2,5-difluoro-phenyl)-4-((3-(trifluoromethyl)-phenyl)sulfonyl)-3,4-dihydro-2H-benzo[b][1,4]oxazin-2-yl)methyl)-3,3,3-trifluoro-2-hydroxy-2-methylpropanamide], at Gal4-RORγ-LBD (setting [1]), the pEC50 is more than 6.30 and the “Gal4-RORγ Assay Max Response” value is “** (The symbol “**” indicates a value in the range of greater than 90 to 150)”. At RORγ-LBD, the negative-log EC50 (pEC50) was more than 6.30 and the “TR-FRET Assay Max Response” value is on record as “**** (The symbol “****” indicates a value greater than 200)”.

For the compound `Cc1cc(Cl)cc(-c2ccc3c(c2)N(S(=O)(=O)c2cccc(C(F)(F)F)c2)C[C@H](CC2(C(=O)O)CCOCC2)O3)c1` [Compound 78B, (S)-4-((6-(3-chloro-5-methyl-phenyl)-4-((3-(trifluoromethyl)-phenyl)sulfonyl)-3,4-dihydro-2H-benzo[b][1,4]oxazin-2-yl)methyl)tetrahydro-2H-pyran-4-carboxylic acid], on Gal4-RORγ-LBD (2 μM ursolic acid), the pEC50 was more than 6.30 and the “Gal4-RORγ Assay Max Response” value is listed as “** (The symbol “**” indicates a value in the range of greater than 90 to 150)”. In addition, at RORγ-LBD, the negative logarithm of the EC50 (pEC50) was more than 6.30 and the “TR-FRET Assay Max Response” value is listed as “** (The symbol “**” indicates a value in the range of greater than 90 to 150)”.

Take `O=C(O)CC[C@H]1CN(S(=O)(=O)c2cccc(C(F)(F)F)c2)c2cc(-c3cc(F)cc(F)c3Cl)cc(F)c2O1` [Compound 22H, (S)-3-(6-(2-chloro-3,5-difluoro-phenyl)-8-fluoro-4-((3-(trifluoro-methyl)phenyl)sulfonyl)-3,4-dihydro-2H-benzo[b][1,4]oxazin-2-yl)propanoic acid]: at Gal4-RORγ-LBD (2 μM ursolic acid), the negative-log EC50 (pEC50) is more than 6.30 and the “Gal4-RORγ Assay Max Response” value is “** (The symbol “**” indicates a value in the range of greater than 90 to 150)”. Further, at RORγ-LBD, the pEC50 is more than 6.30 and the “TR-FRET Assay Max Response” value was “*** (The symbol “***” indicates a value in the range of greater than 150 to 200)”.

In the case of `CC(C)C(=O)NC[C@H]1CN(S(=O)(=O)c2cccc(C(F)(F)F)c2)c2cc(-c3cc(F)ccc3F)ccc2O1` [Compound 30AX, (S)-N-((6-(2,5-difluorophenyl)-4-((3-(trifluoromethyl)phenyl)-sulfonyl)-3,4-dihydro-2H-benzo[b][1,4]oxazin-2-yl)methyl)isobutyramide], at Gal4-RORγ-LBD (setting [1]), the pEC50 was more than 6.30 and the “Gal4-RORγ Assay Max Response” value is given as “** (The symbol “**” indicates a value in the range of greater than 90 to 150)”. Further, on RORγ-LBD, the negative logarithm of the EC50 (pEC50) was more than 6.30 and the “TR-FRET Assay Max Response” value is on record as “*** (The symbol “***” indicates a value in the range of greater than 150 to 200)”.

In the case of `O=C(O)CC[C@H]1CN(S(=O)(=O)c2cccc(C(F)(F)F)c2)c2cc(-c3cccc4nccn34)ccc2O1` [Compound 4P, (S)-3-(6-(imidazo[1,2-a]pyridin-5-yl)-4-((3-(trifluoromethyl)-phenyl)sulfonyl)-3,4-dihydro-2H-benzo[b][1,4]oxazin-2-yl)propanoic acid], at Gal4-RORγ-LBD (setting [1]), the pEC50 is 5.00 to 5.30 and the “Gal4-RORγ Assay Max Response” value is “** (The symbol “**” indicates a value in the range of greater than 90 to 150)”. At RORγ-LBD, the negative logarithm of the EC50 (pEC50) was more than 6.30 and the “TR-FRET Assay Max Response” value is reported as “** (The symbol “**” indicates a value in the range of greater than 90 to 150)”.

Turning to `O=C(O)CC[C@H]1CN(S(=O)(=O)c2cccc(C(F)(F)F)c2)c2cc(-c3cccc(F)c3F)c(Cl)cc2O1` [Compound 22B, (S)-3-(7-chloro-6-(2,3-difluorophenyl)-4-((3-(trifluoromethyl)phenyl)sulfonyl)-3,4-dihydro-2H-benzo[b][1,4]-oxazin-2-yl)propanoic acid], on Gal4-RORγ-LBD (setting [1]), the negative-log EC50 (pEC50) is more than 6.30 and the “Gal4-RORγ Assay Max Response” value is “** (The symbol “**” indicates a value in the range of greater than 90 to 150)”. On RORγ-LBD, the pEC50 is more than 6.30 and the “TR-FRET Assay Max Response” value is “**** (The symbol “****” indicates a value greater than 200)”.

With `Cc1c(C(F)(F)F)cccc1S(=O)(=O)N1C[C@H](CCC(=O)O)Oc2ccc(-c3cc(F)ccc3F)cc21` [Compound 6I, (S)-3-(6-(2,5-difluorophenyl)-4-((2-methyl-3-(trifluoromethyl)phenyl)-sulfonyl)-3,4-dihydro-2H-benzo[b][1,4]oxazin-2-yl)propanoic acid], on Gal4-RORγ-LBD (setting [1]), the negative-log EC50 (pEC50) is 5.30 to 6.30 and the “Gal4-RORγ Assay Max Response” value is reported as “** (The symbol “**” indicates a value in the range of greater than 90 to 150)”. For the same compound, at RORγ-LBD, the pEC50 was more than 6.30 and the “TR-FRET Assay Max Response” value was “*** (The symbol “***” indicates a value in the range of greater than 150 to 200)”.

Consider `O=C(NC[C@H]1CN(S(=O)(=O)c2cccc(C(F)(F)F)c2)c2cc(-c3cccc(F)c3Cl)ccc2O1)C(=O)C1CC1` [Compound 30CA, (S)-N-((6-(2-chloro-3-fluoro-phenyl)-4-((3-(trifluoromethyl)-phenyl)sulfonyl)-3,4-dihydro-2H-benzo[b][1,4]oxazin-2-yl)methyl)-2-cyclopropyl-2-oxoacetamide], for which, on Gal4-RORγ-LBD (2 μM ursolic acid), the pEC50 is more than 6.30 and the “Gal4-RORγ Assay Max Response” value is listed as “* (The symbol “*” indicates a value in the range of 25 to 90)”. Further, at RORγ-LBD, the negative logarithm of the EC50 (pEC50) was more than 6.30 and the “TR-FRET Assay Max Response” value is reported as “*** (The symbol “***” indicates a value in the range of greater than 150 to 200)”.

As to `NS(=O)(=O)CCC(=O)NC[C@H]1CN(S(=O)(=O)c2cccc(C(F)(F)F)c2)c2cc(-c3cc(F)cc(OC(F)F)c3)ccc2O1` [Compound 30DA, (S)-N-((6-(3-(difluoromethoxy)-5-fluorophenyl)-4-((3-(trifluoro-methyl)phenyl)sulfonyl)-3,4-dihydro-2H-benzo[b][1,4]-oxazin-2-yl)methyl)-3-sulfamoylpropanamide], on Gal4-RORγ-LBD (2 μM ursolic acid), the pEC50 is 5.30 to 6.30 and the “Gal4-RORγ Assay Max Response” value is recorded as “* (The symbol “*” indicates a value in the range of 25 to 90)”. On RORγ-LBD, the negative logarithm of the EC50 (pEC50) is more than 6.30 and the “TR-FRET Assay Max Response” value was “*** (The symbol “***” indicates a value in the range of greater than 150 to 200)”.

Turning to `CC(=O)N[C@H]1C[C@H](C[C@H]2CN(S(=O)(=O)c3cccc(C(F)(F)F)c3)c3cc(-c4cc(F)cc(OC(F)F)c4)ccc3O2)C1` [Compound 60D, N-((1S,3r)-3-(((S)-6-(3-(difluoro-methoxy)-5-fluoro-phenyl)-4-((3-(trifluoro-methyl)-phenyl)sulfonyl)-3,4-dihydro-2H-benzo[b][1,4]-oxazin-2-yl)methyl)cyclo-butyl)-acetamide], at Gal4-RORγ-LBD (2 μM ursolic acid), the pEC50 is more than 6.30 and the “Gal4-RORγ Assay Max Response” value is recorded as “* (The symbol “*” indicates a value in the range of 25 to 90)”. Besides, at RORγ-LBD, the pEC50 was more than 6.30 and the “TR-FRET Assay Max Response” value is “*** (The symbol “***” indicates a value in the range of greater than 150 to 200)”.

For the compound `CN(C)c1cccc(-c2ccc3c(c2)N(S(=O)(=O)c2cccc(C(F)(F)F)c2)C[C@H](CNC(=O)C2CC2)O3)n1` [Compound 30BC, (S)-N-((6-(6-(dimethylamino)-pyridin-2-yl)-4-((3-(trifluoro-methyl)phenyl)sulfonyl)-3,4-dihydro-2H-benzo[b][1,4]-oxazin-2-yl)methyl)cyclo-propanecarboxamide], at Gal4-RORγ-LBD (setting [1]), the pEC50 was more than 6.30 and the “Gal4-RORγ Assay Max Response” value is listed as “** (The symbol “**” indicates a value in the range of greater than 90 to 150)”. Moreover, at RORγ-LBD, the negative logarithm of the EC50 (pEC50) is more than 6.30 and the “TR-FRET Assay Max Response” value is on record as “*** (The symbol “***” indicates a value in the range of greater than 150 to 200)”.

Turning to `COc1cc(S(=O)(=O)N2C[C@H](CCC(C)(C)C(=O)O)Oc3ccc(-c4cc(F)cc(OC)c4F)cc32)ccc1F` [Compound 32S, (S)-4-(6-(2,5-difluoro-3-methoxyphenyl)-4-((4-fluoro-3-methoxyphenyl)sulfonyl)-3,4-dihydro-2H-benzo[b][1,4]oxazin-2-yl)-2,2-dimethylbutanoic acid], on Gal4-RORγ-LBD (2 μM ursolic acid), the negative-log EC50 (pEC50) is more than 6.30 and the “Gal4-RORγ Assay Max Response” value is listed as “** (The symbol “**” indicates a value in the range of greater than 90 to 150)”. Further, at RORγ-LBD, the negative logarithm of the EC50 (pEC50) is more than 6.30 and the “TR-FRET Assay Max Response” value is reported as “*** (The symbol “***” indicates a value in the range of greater than 150 to 200)”.

For the compound `O=C1CC(C(=O)NC[C@H]2CN(S(=O)(=O)c3cccc(C(F)(F)F)c3)c3cc(-c4cc(F)ccc4F)ccc3O2)C1` [Compound 30AA, (S)-N-((6-(2,5-difluorophenyl)-4-((3-(trifluoromethyl)phenyl)-sulfonyl)-3,4-dihydro-2H-benzo[b][1,4]oxazin-2-yl)methyl)-3-oxocyclobutane-1-carboxamide], on Gal4-RORγ-LBD (setting [1]), the pEC50 is more than 6.30 and the “Gal4-RORγ Assay Max Response” value is “* (The symbol “*” indicates a value in the range of 25 to 90)”. For the same compound, at RORγ-LBD, the pEC50 was more than 6.30 and the “TR-FRET Assay Max Response” value is “**** (The symbol “****” indicates a value greater than 200)”.
